What was measured:
[1] = test system: mitochondrial transcription (7S RNA) in HeLa cells; test: Quantitative real time-PCR assay of inhibition of mitochondrial transcription (7S RNA) in HeLa cells; format: cell-based; details: Homo sapiens, 4 h compound incubation, according to Example 5, read-out: cellular qPCR assay
Summary of the method: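 HeLa cells were exposed to compound dilution series or DMSO for 4 h, then RNA was extracted, normalized and reverse-transcribed. TaqMan qRT-PCR measured short-lived 7S RNA, with POLRMT as nuclear-transcription readout and TBP as housekeeping gene. Biological triplicates were analyzed by ΔΔCt and reported as Rq % (2−ΔΔCt).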

[2] = target: mitochondrial RNA polymerase (POLRMT) (Mus musculus, UniProt Q8BKF1); test: Homogeneous TR-FRET assay for mitochondrial transcription activity; format: biochemical; details: homogeneous TR-FRET assay according to Example 4
Sequence of mitochondrial RNA polymerase (POLRMT) (Q8BKF1 42-1207): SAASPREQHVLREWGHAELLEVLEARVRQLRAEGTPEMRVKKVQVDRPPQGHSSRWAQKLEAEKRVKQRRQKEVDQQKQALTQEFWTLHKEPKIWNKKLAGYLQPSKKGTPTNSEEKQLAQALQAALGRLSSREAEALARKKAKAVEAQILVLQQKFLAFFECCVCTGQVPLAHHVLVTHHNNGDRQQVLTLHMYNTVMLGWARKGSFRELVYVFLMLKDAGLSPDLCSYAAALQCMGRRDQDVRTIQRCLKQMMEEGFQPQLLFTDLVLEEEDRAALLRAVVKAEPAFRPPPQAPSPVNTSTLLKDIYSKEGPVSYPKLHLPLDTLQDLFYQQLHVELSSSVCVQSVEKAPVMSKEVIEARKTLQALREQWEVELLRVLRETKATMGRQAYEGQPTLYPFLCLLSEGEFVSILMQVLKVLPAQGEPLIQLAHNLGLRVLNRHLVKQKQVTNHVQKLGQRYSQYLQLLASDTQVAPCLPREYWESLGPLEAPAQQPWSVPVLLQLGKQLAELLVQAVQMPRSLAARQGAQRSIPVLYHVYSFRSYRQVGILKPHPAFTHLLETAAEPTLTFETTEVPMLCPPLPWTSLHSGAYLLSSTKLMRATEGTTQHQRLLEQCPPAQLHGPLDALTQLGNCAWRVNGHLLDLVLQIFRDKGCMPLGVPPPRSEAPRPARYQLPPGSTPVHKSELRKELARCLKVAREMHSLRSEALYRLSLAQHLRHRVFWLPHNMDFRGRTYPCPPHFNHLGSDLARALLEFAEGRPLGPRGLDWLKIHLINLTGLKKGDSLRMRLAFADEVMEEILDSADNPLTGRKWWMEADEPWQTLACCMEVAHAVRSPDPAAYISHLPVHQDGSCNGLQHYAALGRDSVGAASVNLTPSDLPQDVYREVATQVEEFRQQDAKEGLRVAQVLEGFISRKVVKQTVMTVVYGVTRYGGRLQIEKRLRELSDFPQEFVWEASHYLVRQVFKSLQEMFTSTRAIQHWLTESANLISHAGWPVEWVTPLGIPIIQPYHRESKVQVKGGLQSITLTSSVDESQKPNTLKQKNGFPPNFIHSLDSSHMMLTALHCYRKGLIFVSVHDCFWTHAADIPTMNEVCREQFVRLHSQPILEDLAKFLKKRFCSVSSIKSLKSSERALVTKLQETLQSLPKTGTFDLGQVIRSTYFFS
Summary of the method: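 Read-out is TR-FRET (ex 340, em 665 nm) from two adjacent labelled DNA probes annealing to the 407 bp transcript after EDTA/700 mM NaCl stop. Reaction: murine POLRMT, TFAM, TFB2M and LSP plasmid template, compound 10 μM or serial dilution, 10 min rt preincubation, 500 μM each nucleotide, 2 h rt.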

Row | SMILES | IC50 [1] [µM] | IC50 [2] [µM]
1 | C[C@@H](Oc1ccc2c(-c3ccc(F)cc3Cl)ccnc2c1)C(=O)N1CCC[C@@H](S(N)(=O)=O)C1 [Compound 117, (3R)-1-[(2R)-2-[[4-(2-chloro-4-fluoro-phenyl)-7-quinolyl]oxy]propanoyl]piperidine-3-sulfonamide] | 0.01 to 0.05 | 0.1 to 1
2 | C[C@@H](Oc1ccc2c(-c3ccccc3Cl)ccnc2c1)C(=O)N1CCC(CCC(=O)O)CC1 [Compound 118, 3-[1-[(2R)-2-[[4-(2-chlorophenyl)-7-quinolyl]oxy]propanoyl]-4-piperidyl]propanoic acid] | 0.01 to 0.05 | < 0.02
3 | C[C@@H](Oc1ccc2c(-c3c(Cl)cccc3Cl)ccnc2c1)C(=O)N1CCC[C@H](CC(=O)O)C1 [Compound 120, 2-[(3R)-1-[(2R)-2-[[4-(2,6-dichlorophenyl)-7-quinolyl]oxy]propanoyl]-3-piperidyl]acetic acid] | 0.01 to 0.05 | < 0.02
4 | CCc1ccccc1-c1ccnc2cc(O[C@H](C)C(=O)N3CCC[C@H](CC(=O)O)C3)ccc12 [Compound 121, 2-((R)-1-((R)-2-((4-(2-ethylphenyl)quinolin-7-yl)oxy)propanoyl)piperidin-3-yl)acetic acid] | 0.01 to 0.05 | 0.02 to 0.1
5 | Cc1cc(-c2c(C)cccc2C)c2ccc(O[C@H](C)C(=O)N3CCC[C@H](CC(=O)O)C3)cc2n1 [Compound 124, 2-[(3R)-1-[(2R)-2-[[4-(2,6-dimethylphenyl)-2-methyl-7-quinolyl]oxy]propanoyl]-3-piperidyl]acetic acid] | 0.05 to 0.5 | 0.1 to 1
6 | C[C@@H](Oc1ccc2c(-c3ccc(F)cc3Cl)ccnc2n1)C(=O)N1CCC[C@H](C(=O)O)C1 [Compound 126, (3S)-1-[(2R)-2-[[5-(2-chloro-4-fluoro-phenyl)-1,8-naphthyridin-2-yl]oxy]propanoyl]piperidine-3-carboxylic acid] | 0.01 to 0.05 | 0.1 to 1
7 | C[C@@H](Oc1ccc2c(-c3ccc(F)cc3Cl)ccnc2n1)C(=O)N1CCC[C@H](CC(=O)O)C1 [Compound 128, 2-[(3R)-1-[(2R)-2-[[5-(2-chloro-4-fluoro-phenyl)-1,8-naphthyridin-2-yl]oxy]propanoyl]-3-piperidyl]acetic acid] | 0.05 to 0.5 | 0.1 to 1
8 | C[C@@H](Oc1ccc2c(-c3c(Cl)cccc3Cl)ccnc2c1)C(=O)N1CCC[C@H](C(=O)O)C1 [Compound 129, (3S)-1-[(2R)-2-[[4-(2,6-dichlorophenyl)-7-quinolyl]oxy]propanoyl]piperidine-3-carboxylic acid] | < 0.01 | < 0.02
9 | C[C@@H](Oc1ccc2c(-c3ccc(F)cc3Cl)ccnc2c1)C(=O)Nc1ccccn1 [Compound 130, (2R)-2-[[4-(2-chloro-4-fluoro-phenyl)-7-quinolyl]oxy]-N-(2-pyridyl)propanamide] | 0.5 to 5 | 0.1 to 1
10 | CCNC(=O)[C@@H](C)Oc1ccc2c(-c3ccc(F)cc3Cl)ccnc2c1 [Compound 131] | 0.05 to 0.5 | 1 to 10
11 | C[C@@H](Oc1ccc2c(-c3c(Cl)cc(F)cc3Cl)ccnc2c1)C(=O)N1CCC[C@H](C(=O)O)C1 [Compound 132, (3S)-1-[(2R)-2-[[4-(2,6-dichloro-4-fluoro-phenyl)-7-quinolyl]oxy]propanoyl]piperidine-3-carboxylic acid] | < 0.01 | < 0.02
12 | Cc1cscc1-c1ccnc2cc(O[C@H](C)C(=O)N3CCC[C@H](CC(=O)O)C3)ccc12 [Compound 133, 2-[(3R)-1-[(2R)-2-[[4-(4-methyl-3-thienyl)-7-quinolyl]oxy]propanoyl]-3-piperidyl]acetic acid] | 0.05 to 0.5 | 0.1 to 1
13 | C[C@@H](Oc1ccc2c(-c3c(Cl)cc(F)cc3Cl)ccnc2c1)C(=O)N1CCC[C@](C)(C(=O)O)C1 [Compound 173, (3S)-1-[(2R)-2-[[4-(2,6-dichloro-4-fluoro-phenyl)-7-quinolyl]oxy]propanoyl]-3-methyl-piperidine-3-carboxylic acid] | < 0.01 | < 0.02
14 | Cc1cc(F)cc(C)c1-c1ccnc2cc(O[C@H](C)C(=O)N3CCC[C@@](C)(C(=O)O)C3)ccc12 [Compound 175, (3R)-1-[(2R)-2-[[4-(4-fluoro-2,6-dimethyl-phenyl)-7-quinolyl]oxy]propanoyl]-3-methyl-piperidine-3-carboxylic acid] | < 0.01 | < 0.02
15 | Cc1cc(F)cc(C)c1-c1ccnc2cc(O[C@H](C)C(=O)N3CCCC[C@@H]3C)ccc12 [Compound 176, (2R)-2-[[4-(4-fluoro-2,6-dimethyl-phenyl)-7-quinolyl]oxy]-1-[(2S)-2-methyl-1-piperidyl]propan-1-one] | 0.01 to 0.05 | < 0.02
16 | Cc1cc(F)cc(C)c1-c1ccnc2cc(O[C@H](C)C(=O)N3CCOCC3)ccc12 [Compound 178, (2R)-2-[[4-(4-fluoro-2,6-dimethyl-phenyl)-7-quinolyl]oxy]-1-morpholino-propan-1-one] | 0.01 to 0.05 | < 0.02
17 | Cc1cc(F)cc(C)c1-c1ccnc2cc(O[C@H](C)C(=O)N3CCC4(CC3)COC4)ccc12 [Compound 179, (2R)-2-[[4-(4-fluoro-2,6-dimethyl-phenyl)-7-quinolyl]oxy]-1-(2-oxa-7-azaspiro[3.5]nonan-7-yl)propan-1-one] | < 0.01 | < 0.02
18 | Cc1cc(F)cc(C)c1-c1ccnc2cc(O[C@H](C)C(=O)N3CCC4(CCNC4=O)CC3)ccc12 [Compound 181, 8-[(2R)-2-[[4-(4-fluoro-2,6-dimethyl-phenyl)-7-quinolyl]oxy]propanoyl]-2,8-diazaspiro[4.5]decan-1-one] | < 0.01 | < 0.02
19 | Cc1cc(F)cc(C)c1-c1ccnc2cc(O[C@H](C)C(=O)N3CCC[C@H](CC(=O)O)C3)ccc12 [Compound 183, 2-[(3R)-1-[(2R)-2-[[4-(4-fluoro-2,6-dimethyl-phenyl)-7-quinolyl]oxy]propanoyl]-3-piperidyl]acetic acid] | < 0.01 | < 0.02
20 | Cc1cc(F)cc(C)c1-c1ccnc2cc(O[C@H](C)C(=O)N3CCC[C@](C)(C(=O)O)C3)ccc12 [Compound 184, (3S)-1-[(2R)-2-[[4-(4-fluoro-2,6-dimethyl-phenyl)-7-quinolyl]oxy]propanoyl]-3-methyl-piperidine-3-carboxylic acid] | < 0.01 | < 0.02
21 | CC(=O)N(O)[C@H]1CCCN(C(=O)[C@@H](C)Oc2ccc3c(-c4c(C)cc(F)cc4C)ccnc3c2)C1 [Compound 185, N-[(3S)-1-[(2R)-2-[[4-(4-fluoro-2,6-dimethyl-phenyl)-7-quinolyl]oxy]propanoyl]-3-piperidyl]-N-hydroxy-acetamide] | < 0.01 | < 0.02
22 | Cc1cc(F)cc(C)c1-c1ccnc2cc(O[C@H](C)C(=O)N3CCCC[C@H]3C)ccc12 [Compound 187, (2R)-2-[[4-(4-fluoro-2,6-dimethyl-phenyl)-7-quinolyl]oxy]-1-[(2R)-2-methyl-1-piperidyl]propan-1-one] | < 0.01 | < 0.02
23 | C[C@@H](Oc1ccc2c(-c3c(Cl)cc(F)cc3Cl)ccnc2c1)C(=O)N1CCC[C@@](C)(C(=O)O)C1 [Compound 188, (3R)-1-[(2R)-2-[[4-(2,6-dichloro-4-fluoro-phenyl)-7-quinolyl]oxy]propanoyl]-3-methyl-piperidine-3-carboxylic acid] | 0.01 to 0.05 | < 0.02
24 | C[C@@H](Oc1ccc2c(-c3ccc(F)cc3Cl)ccnc2c1)C(=O)N1CCC[C@](C)(C(=O)O)C1 [Compound 189, (3S)-1-[(2R)-2-[[4-(2-chloro-4-fluoro-phenyl)-7-quinolyl]oxy]propanoyl]-3-methyl-piperidine-3-carboxylic acid] | < 0.01 | < 0.02
25 | C[C@@H](Oc1ccc2c(-c3c(Cl)cc(F)cc3Cl)ccnc2c1)C(=O)N1CCC[C@H](CC(=O)O)C1 [Compound 192, 2-[(3R)-1-[(2R)-2-[[4-(2,6-dichloro-4-fluoro-phenyl)-7-quinolyl]oxy]propanoyl]-3-piperidyl]acetic acid] | < 0.01 | 0.02 to 0.1
26 | C[C@@H](Oc1ccc2c(-c3ccc(F)cc3Cl)ccnc2c1)C(=O)N1CCCC2(CC2C(=O)O)C1 (stereo partly drawn) [Compound 193, 5-[rac-(2R)-2-[[4-(2-chloro-4-fluoro-phenyl)-7-quinolyl]oxy]propanoyl]-5-azaspiro[2.5]octane-2-carboxylic acid] | 0.01 to 0.05 | 0.02 to 0.1
27 | C[C@@H](Oc1ccc2c(-c3c(Cl)cc(F)cc3Cl)ccnc2c1)C(=O)N1CCCC(C(C)(C)C(=O)O)C1 (stereo partly drawn) [Compound 195, 2-methyl-2-[1-[rac-(2R)-2-[[4-(2,6-dichloro-4-fluoro-phenyl)-7-quinolyl]oxy]propanoyl]-3-piperidyl]propanoic acid] | 0.01 to 0.05 | 0.02 to 0.1
28 | C[C@@H](Oc1ccc2c(-c3ccc(F)cc3Cl)ccnc2c1)C(=O)N1CCCC(C(C)(C)C(=O)O)C1 (stereo partly drawn) [Compound 197, 2-methyl-2-[1-[rac-(2R)-2-[[4-(2-chloro-4-fluoro-phenyl)-7-quinolyl]oxy]propanoyl]-3-piperidyl]propanoic acid] | 0.01 to 0.05 | 0.02 to 0.1
29 | C[C@@H](Oc1ccc2c(-c3ccc(F)cc3Cl)ccnc2c1)C(=O)N1CCC[C@@](C)(C(=O)O)C1 [Compound 198, (3R)-1-[(2R)-2-[[4-(2-chloro-4-fluoro-phenyl)-7-quinolyl]oxy]propanoyl]-3-methyl-piperidine-3-carboxylic acid] | < 0.01 | 0.02 to 0.1
30 | C[C@@H](Oc1ccc2c(-c3c(Cl)cc(F)cc3Cl)ccnc2c1)C(=O)N1CCCC[C@@H]1C [Compound 199, (2R)-2-[[4-(2,6-dichloro-4-fluoro-phenyl)-7-quinolyl]oxy]-1-[(2S)-2-methyl-1-piperidyl]propan-1-one] | < 0.01 | 0.02 to 0.1

Source: patent US12281079B2, “Quinoline derivatives, processes for their preparation and uses thereof for the treatment of cancer” (Lead Discovery Center GmbH, priority 2019, dated 2025)
